“Also recorded” adds a separate entry of the source. Where a name gives a salt, the structure may show the parent alone. Read-outs that look alike come from different tables or passages of the source.
What was measured:
fascia fibroblasts [1] = experiment: 3D staining of fascia tissue for αSMA, Ki67 and caspase 3; assay type: cell-based, mouse; conditions: fascia tissue in Matrigel
Description: (§1) In order to characterize the properties of fascia samples cultured in Matrigel, the Inventors fixed the whole gel (with fascia tissue embedded inside) and conducted 3D staining. Samples were immersed overnight in PBSGT (lx PBS implemented with 0.2% gelatin (Sigma), 0.5% Triton X-100 (Sigma) and 0.01% thimerosal (Sigma)) at room temperature and incubated with primary antibodies diluted in PBSGT for three days at room temperature. The tissues were then washed three times with PBSGT for at least 30 min each time and incubated with secondary antibodies diluted in PBSGT for one day. Finally, tissues were rinsed three times with PBSGT and stored in PBS at 4° C. until imaging. 3D whole mount imaging was conducted with a Leica SP8 multi-photon microscope.
(§2) Primary and secondary antibodies applied in 3D staining: αSMA (ab21027, Abcam), Ki 67 (ab16667, Abcam), Cleaved Caspase-3 (9661S, Cell signalling), Gli1 (ab49314, Abcam), Donkey anti rabbit AF647 (A-31573, Life Technologies), Donkey anti goat AF647 (A-21447, Life Technologies).
To better understand the molecular basis of reticulations that leads to scarring, the Inventors took a closer look at the molecular targets of the ‘hit’ chemicals. […] Thiostrepton reduces the binding activity of the transcriptional factor FoxM1; a positive regulator of Gli1 signaling (REF). Whereas Itraconazole inhibits Gli nuclear activity through stopping SMO moving to the membrane of primary cilia and thus inhibiting the pathway (James et al., 2010). […] The 3rd anti-scar drug Fluvastatin inhibits 3-Hydroxy-3-methylglutaryl-coenzyme A (HMG-CoA) reductase, a rate-limiting enzyme in cholesterol biogenesis that is required for hedgehog pathway activation (Huang P et al., 2016; Giovanni Luchetti et al., 2016). […] Thus, the Inventors conclude that anti-fibrosis chemicals converge on SHH pathway signaling to modulate fibroblast sprouting and reticulations, needed to mobilize fascia jelly into sites of injury.
The hedgehog pathway was also reported to induce proliferation and to depress apoptosis.

skin-fascia explants = experiment: Scar-in-a-dish (SCAD) ex vivo skin-fascia explant assay, screening of Prestwick chemical library; assay type: cell-based, mouse; conditions: molecules of table 1 named as inhibitors of ECM movement
Excerpt: Post born Day 0 (P0) neonates of C57BL/6J wild type mouse were first sacrificed by decapitation. Then dorsal back skin was isolated to make 2 mm full thickness biopsies (0 2 mm, Stiefel) that included the epidermis, dermis and deep subcutaneous fascia layers. The whole skin tissue explant system is termed as scar-in-a-dish (SCAD) assay (Patent Application no. PLA17A13). The SCAD tissue was maintained in DMEM/F12 cell culture medium (Life Technologies) supplemented with 10% FBS (Life Technologies), 1% non-essential amino acid (Thermo Fisher), 1% Glutamax (Thermo Fisher), 1% penicillin and streptomycin (Thermo Fisher) in a 37° C. incubator supplied with […] and 5% CO2. Medium was changed every other day until day 5 when SCADs were collected and fixed for histology analysis. To be noticed, the excised skin was submerged […] in culture media, which confined the scar-prone fibroblasts to the explant and discouraged their adherence to the tissue culture plate.
The PCL provides an additional advantage as all chemicals are of stable physicochemical properties, show a high range of chemical diversity, and are with known bioavailability and safety data in humans. All these information helps to reduce the probability of screening low-quality hits and save the costs of preliminary screening process.
In order to accommodate to medium scale screening approach, the Inventors adapted the SCAD explant system into 96-well plate (Falcon) formats, with each well contained one biopsy. […] Plate and liquid handling were performed using a high-throughput screening platform system composed of a Sciclone G3 Liquid Handler from PerkinElmer (Waltham, Mass., USA). On Day 0 tissues were treated either with the respective compound (1 mM stock solution) dissolved in 100% dimethyl sulfoxide (DMSO, Carl Roth) or DMSO alone. 0.5 μl of compounds/DMSO were transferred with a 96-array head to 200 μl DMEM/F12 medium per well to keep the final DMSO concentrations at […]. Tissues were then incubated (37° C.; 5% CO2) for 72 h prior to a second round of compound treatment, which was performed by exchanging cell culture medium per well and transferring […] of compounds/DMSO into the fresh medium. After an incubation time of another 48 h (37° C.; 5% CO2) the tissues were harvested and fixed for histological processing and imaging.
Briefly, the Inventors excised 2-mm full thickness skin biopsies that included epidermis, dermis, and deep subcutaneous fascia layers from mouse backs (see Methods). Skin-fascia explants were submerged fascia-side up in culture media, to confine scar-prone fibroblasts to the explant and discourage their adherence to the tissue culture plate.
The Prestwick library has selected a diverse array of chemicals with strong physicochemical properties, with known bioavailability and clinical safety data. The library is an ideal place to start screening as it covers all major therapeutic chemical classes such as central nervous system, cardiovascular system, metabolism, and infectious diseases.

fascia fibroblasts [2] = experiment: Fascia invasion assay (ex vivo fascia 3D Matrigel culture); assay type: cell-based, mouse
Description: In order to observe the dynamic changes of fascia fibroblasts, the inventors isolated dorsal skin from P4 to P6 neonates of En1^Cre; R26^mTmG mouse lines. Cre positive neonates from this double transgenic mouse line were detected by green fluorescent signal in dorsal skin with a Leica M205 FA stereo microscope. Matrigel was prepared by diluting the stock aliquots with DMEM/F12 medium to a concentration of 6 mg/ml. Then 150 μl prepared gel was added in the center of a 35 mm cell culture dish (Ibidi). 4 mm biopsies were made from the dorsal skin and fascia tissues were then isolated from the dorsal skin tissues. Isolated fascia tissues were then embedded into the gel and were allowed to be solidified for one hour at 37° C. Then the tissue-gel system was maintained in DMEM/F12 medium (Life Technologies) supplemented with 10% FBS (Life Technologies), 1% non-essential amino acid (Thermo Fisher), 1% Glutamax (Thermo Fisher), 1% penicillin and streptomycin (Thermo Fisher) in a 37° C. incubator supplied with 95% O2 and 5% CO2. Medium was changed every other day until day 4 when tissues were collected and fixed. For fixation with Matrigel system, tissues were fixed in 2% paraformaldehyde (VWR) with 0.1% glutaraldehyde (Sigma) for 1 hour and then washed three times with phosphate buffered saline (PBS, Life Technologies) and stored in PBS at 4° C.
Fascia tissues were recorded everyday by a brightfield microscope to check the invasion and contraction state of the tissues. The invasion index was calculated with the following formula: Invasion index=(SD4−SD0)/SD0
SD4 and SD0 represent tissue size (including the migrated area) on Day 4 and Day 0, respectively. The contraction index was calculated with the following formula: Contraction index=(TD0−TD4)/TD0
TD4 and TD0 represent original tissue size (excluding the migrated area) on Day 4 and Day 0 respectively.
The Inventors isolated fascia from back-skin of En1^Cre; R26^mTmG double-transgenic mice, separately incubated whole fascia explants with 26 small molecules, and measured the invasion index (Si)=(SD4−SD0)/SD0 (see Methods) as a proxy measure of sprouting and reticulation.

[3] = tested on: scars of splinted back-skin wounds; experiment: In vivo splinted wound model (scar formation); set-up: species or system mouse; conditions: 75 μl per wound of 250 μM intra-dermally, day 21, trichrome staining
[4] = tested on: fascia matrix mobilization into wounds; experiment: Fascia labelling study: fascia mobilization into excisional back-skin wounds in live mice; assay type: in vivo, mouse; conditions: 75 μl of 250 μM three times a week, wounds collected Day 7
Description: For the fascia labelling study, 2 mg/ml NHS-fluorescein dye was subcutaneously injected into dorsal skin of wildtype mice at 4 days and 2 days prior to the surgery. After labelling, excisional wounds were made in mouse back-skin and treated with 75 μl saline diluted chemical solutions with a final concentration of 250 μM three times a week from the surgery day onwards. Scar samples were collected on D7.
Having discovered sprouting and reticulations are altered by the compounds, the Inventors went on to check how these effect fascia mobilization in physiologic wounds in live animals. First, the Inventors labelled the subcutaneous fascia layer with a FITC-NHS ester dye in animals, then made full thickness excisional wounds on the backs of fascia-labelled mice, and followed wound healing under the presence of a […] injection regimen using the above 3 separate compounds. Skin wounds were collected at Day 7 after wounding to determine the extent of fascia mobilization and also at 21 days post-injury to determine final wound size and scar severity. In DMSO control groups, the fascia matrix jelly was mobilized into the wound from all sides of the wound, and wounds at 7 days were completely clogged with large patches of labelled matrix jelly.

Gli1 = experiment: 3D staining of fascia tissue for Gli1 (hedgehog pathway); assay type: cell-based, mouse; conditions: fascia tissue in Matrigel
Description: as §1, §2
To better understand the molecular basis of reticulations that leads to scarring, the Inventors took a closer look at the molecular targets of the ‘hit’ chemicals. […] Thiostrepton reduces the binding activity of the transcriptional factor FoxM1; a positive regulator of Gli1 signaling (REF). […]

fascia matrix = experiment: Fascia in vitro culture, live imaging of matrix movements (SHG); assay type: cell-based, mouse; conditions: C57BL6/J neonate fascia biopsy, 100 μM Etoposide
Description: Two in vitro systems were used. To visualize the changes in matrix architecture in real time, 2 mm-diameter biopsies were excised from P0 C57BL/6J neonates and processed for live imaging (SCAD assay, Patent Application No. PLA17A13). To determine the effectiveness of the DT treatment, muscle+fascia was manually separated from the rest of the skin in the chimeric grafts experiments and incubated with DT at different concentrations for 1 h at ambient temperature. […]
Histological sections were imaged using a using a ZEISS AxioImager.Z2m (Carl Zeiss). […] Second harmonic generation signal and green auto-fluorescence as a reference were recorded every hour. […]
Histological images were analyzed using ImageJ. For quantification of labeled cells in the fate mapping experiments, the Inventors manually defined the wound, surrounding dermis, and adjacent fascia areas. […] The number of labeled cells in each area was determined by quantifying the particles that were double-positive for DAPI and for the desired label (eg. Dil, GFP, etc) channels. The coverage of the labeled matrix in the wound area was determined by quantifying the area that was double-positive for the labeled matrix and the COLLAGEN I+III+VI staining signal. […] Scar length was quantified from randomly selected sections taken from the middle of the scar using as a reference the two flanking hair follicles. […]

[5] = listed as Fluvastatin, sodium salt

Structure (SMILES) | cell death (caspase 3) (fascia fibroblasts [1]) | cell proliferation activity (Ki67) (fascia fibroblasts [1]) | phenotype as inhibitor of ECM movement (skin-fascia explants) | inter-cell connectivity, sprouting and reticulations within the fascia (fascia fibroblasts [2]) | scar size / scarring of wounds [3] | fascia (matrix jelly) mobilization into wounds [4] | αSMA expression / activation into myofibroblasts (fascia fibroblasts [1]) | Gli1 protein expression (Gli1) | inter-cell connectivity, sprouting and reticulations within the fascia (fascia fibroblasts [2]; [5]) | inter-cell connectivity, sprouting and reticulations within the fascia (fascia fibroblasts [2]; sodium salt) | fascia (matrix jelly) mobilization into wounds [4, 5] | fascia (matrix jelly) mobilization into wounds ([4]; sodium salt) | fascia matrix movements (contraction) (fascia matrix)
C=C(NC(=O)C(=C)NC(=O)c1csc(C2=N[C@@H]3c4csc(n4)[C@H]4NC(=O)c5csc(n5)[C@H]([C@](C)(O)[C@@H](C)O)NC(=O)[C@H]5CSC(=N5)/C(=C/C)NC(=O)[C@H]([C@@H](C)O)NC(=O)c5csc(n5)[C@]3(CC2)NC(=O)[C@H](C)NC(=O)C(=C)NC(=O)[C@H](C)NC(=O)[C@H]([C@@H](C)CC)N[C@@H]2C=Cc3c([C@H](C)O)cc(nc3[C@H]2O)C(=O)O[C@@H]4C)n1)C(N)=O [Thiostrepton] | increased | decreased | anti-fibrotic phenotype | completely inhibited sprouting and reticulations | reduced scaring of wounds | reduced fascia jelly movements; also recorded: inhibited | – | – | – | – | – | – | –
CC(C)n1c(/C=C/C(O)CC(O)CC(=O)O)c(-c2ccc(F)cc2)c2ccccc21 (centres unmarked) [Fluvastatin sodium salt] | increased | decreased | anti-fibrotic phenotype | – | reduced scaring of wounds | – | cells can be activated into myofibroblast | weakly expressed | intact cell-cell connection and network formation | completely inhibited sprouting and reticulations | completely inhibited | reduced fascia jelly movements | –
COc1cc([C@@H]2c3cc4c(cc3[C@@H](O[C@@H]3O[C@@H]5CO[C@@H](C)O[C@H]5[C@H](O)[C@H]3O)[C@H]3COC(=O)[C@H]23)OCO4)cc(OC)c1O [Etoposide] | – | – | – | – | – | – | – | – | – | – | – | – | no effect; also recorded: clear contraction of the fascial matrix in culture in absence of cell proliferation

— patent US20220334101A1, “MODULATING EXTRACELLULAR MATRIX MOVEMENT” (Helmholtz Zentrum Muenchen - Deutsches Forschungszentrum …, priority 2019, published 2022)
